Patent US20040039039A1, “Fungicidal mixtures” (priority 2003, published 2004)

Tested on: Plasmopara viticola
Test: Protective activity against Peronospora in grapevines caused by Plasmopara viticola
Type: in vivo
Settings: individual active compound, potted vines
Method: The active compounds, separately or together, were formulated as a 10% emulsion in a mixture of 63% by weight of cyclohexanone and 27% by weight of emulsifier, and diluted with water to the desired concentration.
Evaluation was carried out by determining the infected leaf areas in percent. These percentages were converted into efficacies. The efficacy (W) was calculated as follows using Abbot's formula: […]
α corresponds to the fungal infection of the treated plants in % and β corresponds to the fungal infection of the untreated (control) plants in % An efficacy of 0 means that the infection level of the treated plants corresponds to that of the untreated control plants; an efficacy of 100 means that the treated plants were not infected.
The expected efficacies of the mixtures of the active compounds were determined using Colby's formula [R. S. Colby, Weeds 15, 20-22 (1967)] and compared with the observed efficacies.
Colby's formula: E=x+y−x·y/100
E expected efficacy, expressed in % of the untreated control, when using the mixture of the active compounds A and B at the concentrations a and b x efficacy, expressed in % of the untreated control, when using active compound A at a concentration a y efficacy, expressed in % of the untreated control, when using active compound B at a concentration b.
Protective Activity Against Peronospora in Grapevines Caused by Plasmopara viticola Leaves of potted vines of the cultivar “Müiller-Thurgau” were sprayed to runoff point with an aqueous preparation of active compound which had been prepared using a stock solution comprising 10% of active compound, 85% of cyclohexanone and 5% of emulsifier. The next day, the undersides of the leaves were inoculated with an aqueous zoospore suspension of Plasmopara viticola. The vines were then placed firstly for 48 hours in a water-vapor-saturated chamber at 24° C. and then for 5 days in a greenhouse at 20-30° C. After this period of time, the plants were again placed in a moist chamber for 16 hours to accelerate the sporangiophore eruption. The extent to which the undersides of the leaves had been infected was then determined visually.

Row | Compound | Efficacy in % of the untreated control (0.05 ppm in the spray liquor) [%] | Efficacy in % of the untreated control (0.1 ppm in the spray liquor) [%] | Efficacy in % of the untreated control (0.2 ppm in the spray liquor) [%] | Efficacy in % of the untreated control (5 ppm in the spray liquor) [%] | Efficacy in % of the untreated control (10 ppm in the spray liquor) [%]
1 | Cc1ccc(-c2c(Cl)nc(C#N)n2S(=O)(=O)N(C)C)cc1 [Ia, cyazofamid] | 56 | 78 | 89 | – | –
2 | manganese ethylenebis(dithiocarbamate) (zinc complex) [IIa] | – | – | – | 11 | 72
3 | zinc ammoniate ethylenebis(dithiocarbamate) [IIc] | – | – | – | 0 | 11
